Laboratory results taken from PubChem BioAssay AID1963848 (Molecular Pharmacology Branch, DTP, NCI, 2024).
“And” between values parts separate entries of the source, which are not always exact repeats. Equal values may be shown once.

Tested on: 379773-124-R-J2-PDC spheroid viability
Assay: Anticancer human tumor 379773-124-R-J2-PDC patient-derived endometrial carcinoma cell line growth inhibition [POLQ]
Conditions: spheroids with HUVEC and MSC; for viability, T/C: stronger effect = lower value
Protocol: Multicellular complex tumor spheroid response to Polymerase (POL) inhibitors (novobiocin, ART-558, RP6685) in combination with a variety of drugs and investigational agents in selected tumor cell lines
The POL inhibitors (novobiocin, ART-558, and RP6685) were evaluated both individually and in combination with standard of care and investigational anticancer small molecules within a complex spheroid model of solid tumors. . Complex spheroids include a stromal component modeled by human endothelial cells (HUVEC) and fibroblasts modeled by human mesenchymal stem cells (MSCs). The concentration ranges selected for each drug and investigational agent were based upon clinically achievable concentrations if the clinical Cmax of the agent was known.
Compounds. The drugs and investigational agents: novobiocin (NSC847541), ART-558 (NSC835418), RP-6685 (NSC848927), peposertib (NSC802822), ceralasertib (NSC780249), elimusertib (NSC800525), camonsertib (NSC841442), AZD-1390 (NSC803789), olaparib (NSC753686), talazoparib (NSC767125), rucaparib (NSC756644), sotorasib (NSC818433), MRTX-1133 (NSC836407), SN-38 (NSC673596), topotecan (NSC609699), epotoside (NSC141540), doxorubicin (NSC123127), gemcitabine (NSC613327), 5-fluorouracil (NSC19893), paclitaxel (NSC125973), vemurafenib (NSC761431), MSA-2 (NSC828583), SN-011 (NSC837082), adavosertib (NSC754352), prexasertib (NSC758257), carboplatin (NSC241240) and oxaliplatin (NSC266046), were obtained from the National Cancer Institute (NCI) Developmental Therapeutics Program Chemical Repository (21). The FDA-approved anticancer drug set is available from the Developmental Therapeutics Program at https://dtp.cancer.gov/organization/dscb/obtaining/. […] The stock solutions were prepared in dimethyl sulfoxide (DMSO, Sigma-Aldrich, St. Louis, MO, cat. D2650), except for the platinum compounds which were prepared in saline (Quality Biological, Gaithersburg, MD, cat. 114-055-101), at 800-fold the tested concentration and stored at -70 degrees C prior to their use. All drugs and investigational agents were tested over a range starting from a high concentration at or near the clinical Cmax and decreasing in half-log increments. If the clinical Cmax for an agent had not been determined, the highest concentration tested was 10 microM, except for SN-38, which was tested at a high concentration of 1 microM.
Cell Culture. All cells were maintained in an incubator at 37 degrees C and 5% CO2 with 95% humidity. The PDC lines were cultured according to standard operating procedures established by the NCI PDMR (https://pdmr.cancer.gov). Table 3 of the manuscript, lists the cell lines along with the number of the three cell types plated to form the mct-spheroids and media for tumor cell growth. After thawing, all PDC lines, except 997537-175-T-J1-PDC and 415267-285-R-J2-PDC, were cultured in Matrigel-coated flasks prepared with a working solution of 1X Ham's F-12 nutrient mix, without supplementation (Thermo Fisher Scientific, cat. 11765054), 100 U/mL penicillin-streptomycin (Thermo Fisher Scientific, cat. 15140122), and 2.5% Matrigel (Corning Inc., Corning, NY, cat. 354248) for the first three passages. The two PDC lines 997537-175-T-J1-PDC and 415267-285-R-J2-PDC were cultured on uncoated flasks. The 857933-349-R-J2-PDC line was cultured in 6C/Colon 1B media containing advanced DMEM/F-12 (Thermo Fisher Scientific, cat. 12634028), 10 mM HEPES (Thermo Fisher Scientific, cat. 15630080), 1X GlutaMAX supplement (Thermo Fisher Scientific, cat. 35050061), 0.1 mg/mL primocin (InvivoGen, San Diego, CA, cat. ant-pm-2), 10% defined fetal bovine serum, heat inactivated (HyClone Laboratories Inc., Logan, UT, cat. SH30070.03HI), 50% L-WRN conditioned media (ATCC, cat. CRL-3276), 1.25 mM N-Acetyl-L-cysteine (Sigma-Aldrich, cat. A9165), 10 mM nicotinamide (Sigma-Aldrich, cat. N0636), 1X B-27 supplement (Thermo Fisher Scientific, cat. 17504044), 1X N-2 supplement (Thermo Fisher Scientific, cat. […]

[1] = curve of first compound, second compound 0.0316 µM
[2] = curve of first compound, second compound 0.1 µM
[3] = curve of first compound, second compound 0.316 µM
[4] = curve of first compound, second compound 1 µM
[5] = curve of first compound, second compound 3.16 µM
[6] = curve of first compound, second compound 10 µM
[7] = second compound 0.0316 µM, first compound 0.0316 µM
[8] = second compound 0.0316 µM, first compound 0.1 µM
[9] = second compound 0.0316 µM, first compound 0.316 µM
[10] = second compound 0.0316 µM, first compound 1 µM
[11] = second compound 0.0316 µM, first compound 3.16 µM
[12] = second compound 0.0316 µM, first compound 10 µM
[13] = second compound 0.1 µM, first compound 0.0316 µM
[14] = second compound 0.1 µM, first compound 0.1 µM
[15] = second compound 0.1 µM, first compound 0.316 µM
[16] = second compound 0.1 µM, first compound 1 µM
[17] = second compound 0.1 µM, first compound 3.16 µM
[18] = second compound 0.1 µM, first compound 10 µM
[19] = second compound 0.316 µM, first compound 0.0316 µM
[20] = second compound 0.316 µM, first compound 0.1 µM
[21] = second compound 0.316 µM, first compound 0.316 µM
[22] = second compound 0.316 µM, first compound 1 µM
[23] = second compound 0.316 µM, first compound 3.16 µM
[24] = second compound 0.316 µM, first compound 10 µM
[25] = second compound 1 µM, first compound 0.0316 µM
[26] = second compound 1 µM, first compound 0.1 µM
[27] = second compound 1 µM, first compound 0.316 µM
[28] = second compound 1 µM, first compound 1 µM
[29] = second compound 1 µM, first compound 3.16 µM
[30] = second compound 1 µM, first compound 10 µM
[31] = second compound 3.16 µM, first compound 0.0316 µM
[32] = second compound 3.16 µM, first compound 0.1 µM
[33] = second compound 3.16 µM, first compound 0.316 µM
[34] = second compound 3.16 µM, first compound 1 µM
[35] = second compound 3.16 µM, first compound 3.16 µM
[36] = second compound 3.16 µM, first compound 10 µM
[37] = second compound 10 µM, first compound 0.0316 µM
[38] = second compound 10 µM, first compound 0.1 µM
[39] = second compound 10 µM, first compound 0.316 µM
[40] = second compound 10 µM, first compound 1 µM
[41] = second compound 10 µM, first compound 3.16 µM
[42] = second compound 10 µM, first compound 10 µM
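Note: spheroids exposed to drugs for seven days before readout.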
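Throughout, for viability, T/C: percent viability relative to DMSO vehicle control taken as 100%.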

With `O=c1[nH]cc(F)c(=O)[nH]1` the viability, T/C (compound 0.0316 µM) was 99.4% and 89.8% and 84.2%, the viability, T/C (compound 0.1 µM) was 81.4% and 94.1% and 74.5% and the viability, T/C (compound 0.316 µM) was 87.7% and 83.8% and 83.7%. The viability, T/C (compound 1 µM) was 93.3% and 88.7% and 90.6%, the viability, T/C (compound 3.16 µM) was 80.8% (2×) and 87.2% and the viability, T/C (compound 10 µM) was 54.3% and 51.3% and 50.9%. It also gave an IC50 (curve of compound) of over 10000 nM.
For `Cn1ncnc1[C@H]1c2n[nH]c(=O)c3cc(F)cc(c23)N[C@@H]1c1ccc(F)cc1`, the viability, T/C (compound 0.000316 µM) was 87.2% and 92.3% and 89.2%, the viability, T/C (compound 0.001 µM) was 84% and 90% and 91.3% and the viability, T/C (compound 0.00316 µM) was 95.8% and 99.7% and 71.6%. The viability, T/C (compound 0.01 µM) was 80.2% and 93.1% and 88.5%, the viability, T/C (compound 0.0316 µM) was 69.2% and 76.9% and 80.9% and the viability, T/C (compound 0.1 µM) was 51.7% and 51.5% and 63.7%. It also gave an IC50 (curve of compound) of over 100 nM.
For `Nc1ccc(C#CCN(C(=O)Cc2ncc(C(F)(F)F)cc2C(F)(F)F)c2ccc(F)cc2)nn1`, the viability, T/C (compound 0.0316 µM) was 91.8% [middle of 13 runs], the viability, T/C (compound 0.1 µM) was 92.8% [middle of 13 runs] and the viability, T/C (compound 0.316 µM) was 93.2% [middle of 13 runs]. The viability, T/C (compound 1 µM) was 91.9% [middle of 13 runs], the viability, T/C (compound 3.16 µM) was 94.9% [middle of 12 runs] and the viability, T/C (compound 10 µM) was 91.4% [middle of 13 runs]. The IC50 (compound alone, run of 11/06/2023) was over 10000 nM.
In the case of `CC1COCCN1c1cc(-c2ccnn2C)c2ccnc(-c3ccn[nH]3)c2n1` (configuration not stated) + Nc1ccc(C#CCN(C(=O)Cc2ncc(C(F)(F)F)cc2C(F)(F)F)c2ccc(F)cc2)nn1, the IC50 [1] is reported as 120 nM, the IC50 [2] is reported as 133 nM and the IC50 [3] is reported as 114 nM. It also gave an IC50 [4] of 130 nM, an IC50 [5] of 135 nM and an IC50 [6] of 142 nM. For the same compound, the viability, T/C [7] was 89.5%, the viability, T/C [8] was 56.8% and the viability, T/C [9] was 13.7%. It also gave a viability, T/C [10] of 11.4%, a viability, T/C [11] of 12% and a viability, T/C [12] of 6.24%. It also gave a viability, T/C [13] of 89.5%, a viability, T/C [14] of 61.2% and a viability, T/C [15] of 15.6%. It also gave a viability, T/C [16] of 11.1%, a viability, T/C [17] of 12.2% and a viability, T/C [18] of 8.99%. It also gave a viability, T/C [19] of 90.6%, a viability, T/C [20] of 54.3% and a viability, T/C [21] of 16.2%. It also gave a viability, T/C [22] of 11.5%, a viability, T/C [23] of 12.7% and a viability, T/C [24] of 7.88%. For the same compound, the viability, T/C [25] was 93.2%, the viability, T/C [26] was 60.6% and the viability, T/C [27] was 13.9%. The viability, T/C [28] was 9.22%, the viability, T/C [29] was 12.6% and the viability, T/C [30] was 9.58%. For the same compound, the viability, T/C [31] was 91.4%, the viability, T/C [32] was 62.9% and the viability, T/C [33] was 13%. It also gave a viability, T/C [34] of 10.6%, a viability, T/C [35] of 10.9% and a viability, T/C [36] of 7.43%. The viability, T/C [37] was 80.1%, the viability, T/C [38] was 64.2% and the viability, T/C [39] was 17.7%. It also gave a viability, T/C [40] of 8.24%, a viability, T/C [41] of 12.3% and a viability, T/C [42] of 8.65%.
`O=C(Nc1ccc(O)c(NS(=O)(=O)c2ccc(F)cc2)c1)c1ccc(-c2ccccc2)cc1` + Nc1ccc(C#CCN(C(=O)Cc2ncc(C(F)(F)F)cc2C(F)(F)F)c2ccc(F)cc2)nn1 showed an IC50 [1] of over 10000 nM, an IC50 [2] of over 10000 nM and an IC50 [3] of over 10000 nM. For the same compound, the IC50 [4] was over 10000 nM, the IC50 [5] was over 10000 nM and the IC50 [6] was over 10000 nM. The viability, T/C [7] was 85%, the viability, T/C [8] was 92.1% and the viability, T/C [9] was 85.8%. The viability, T/C [10] was 91.5%, the viability, T/C [11] was 89.8% and the viability, T/C [12] was 77.5%. For the same compound, the viability, T/C [13] was 89.8%, the viability, T/C [14] was 81.8% and the viability, T/C [15] was 90.8%. For the same compound, the viability, T/C [16] was 82.6%, the viability, T/C [17] was 89% and the viability, T/C [18] was 79.3%. It also gave a viability, T/C [19] of 91.9%, a viability, T/C [20] of 90.4% and a viability, T/C [21] of 84.1%. The viability, T/C [22] was 88.7%, the viability, T/C [23] was 92.2% and the viability, T/C [24] was 79.6%. It also gave a viability, T/C [25] of 96.6%, a viability, T/C [26] of 96.4% and a viability, T/C [27] of 89.1%. It also gave a viability, T/C [28] of 83.2%, a viability, T/C [29] of 93.8% and a viability, T/C [30] of 81%. The viability, T/C [31] was 94.4%, the viability, T/C [32] was 86.3% and the viability, T/C [33] was 88.8%. For the same compound, the viability, T/C [34] was 86.2%, the viability, T/C [35] was 86.7% and the viability, T/C [36] was 79.4%. The viability, T/C [37] was 94.2%, the viability, T/C [38] was 87.6% and the viability, T/C [39] was 87%. The viability, T/C [40] was 85.2%, the viability, T/C [41] was 86.5% and the viability, T/C [42] was 71.9%.
For `C=CCn1c(=O)c2cnc(Nc3ccc(N4CCN(C)CC4)cc3)nc2n1-c1cccc(C(C)(C)O)n1`, the viability, T/C (compound 0.00316 µM) was 95.2% and 88.4% and 90.7%, the viability, T/C (compound 0.01 µM) was 83.8% and 82.6% and 88.3% and the viability, T/C (compound 0.0316 µM) was 86.5% and 84.1% and 94.8%. For the same compound, the viability, T/C (compound 0.1 µM) was 91.2% and 98.4% and 89.9%, the viability, T/C (compound 0.316 µM) was 67.7% and 74.7% and 79.6% and the viability, T/C (compound 1 µM) was 2.93% and 2.98% and 6.11%. The IC50 (curve of compound) was 434 nM and 470 nM and 503 nM.
